The IC50 is the concentration needed to halve the response being measured.

Data on 5 molecules can be found in US9561228B2 (Celgene Avilomics Research, Inc., priority 2013, dated 2017).

The test system of assay [1] is ERK1/2 phosphorylation of p90RSK in A375 cells. The assay is described as follows: Detection of total and phosphor-RSK by MSD ELISA (A375). It is filed as cell-based. The conditions noted are these: Homo sapiens, A-375, read-out: ERK1/ERK2 PRSK A375 EC50. The essentials: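 Electrochemiluminescent MSD ELISA: common RSK capture antibody, with pRSK Ser380 or total RSK detection antibodies plus SulfoTag secondaries. Samples were lysates of A375 cells exposed to compound for 2 h at 37° C after overnight culture in 0.1% FBS DMEM.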
In general terms: In an ELISA, binding on a coated surface is turned into a signal by an enzyme label.

Assay [2] addresses T1, Erk1 (Homo sapiens, UniProt P27361).
T1 construct: purchased Millipore 14-439
The assay is described as follows: Protein Mass Modification Assay (intact protein MALDI, 60 min, 10-fold excess of compound). The format is binding. The essentials:
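Percent covalent modification comes from the intact-protein MALDI centroid mass shift, treated versus control, divided by compound MW. Before analysis, human Erk1 was exposed to compound at 10-fold excess over protein for 60 min at room temperature.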

The target in assay [3] is T2, MEK1 activated ERK1 (Homo sapiens, UniProt P27361).
T2 construct: purchased Millipore (Billerica, Mass.) 14-439-K
Nature of the assay: Omnia continuous-read kinase assay for potency against MEK1 activated ERK1. The format is biochemical. The conditions noted are these: ATP at KM, WT. The essentials:
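Apparent IC50 came from initial reaction slopes (RFU vs time) plotted against log inhibitor with a variable-slope fit. Reactions were started with ERK1 (4 nM final) added to 50 μM ATP, roughly at its appKM, and 10 μM Sox-conjugated ST17 peptide in 20 mM Tris pH 7.5, 5 mM MgCl2. Fluorescence was monitored every 71 seconds.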

A value given as a limit tells only on which side of the number the result lay.

T1 sequence (P27361 whole entry): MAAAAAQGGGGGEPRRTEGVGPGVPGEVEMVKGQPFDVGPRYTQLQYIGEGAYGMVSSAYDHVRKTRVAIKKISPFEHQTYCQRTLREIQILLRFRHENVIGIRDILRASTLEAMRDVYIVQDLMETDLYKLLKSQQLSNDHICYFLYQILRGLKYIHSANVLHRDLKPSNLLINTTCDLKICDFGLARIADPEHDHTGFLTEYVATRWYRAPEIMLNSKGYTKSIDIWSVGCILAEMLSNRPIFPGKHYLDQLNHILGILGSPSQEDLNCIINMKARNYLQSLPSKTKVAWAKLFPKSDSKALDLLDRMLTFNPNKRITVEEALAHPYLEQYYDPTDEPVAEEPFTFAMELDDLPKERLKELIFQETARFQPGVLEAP
T2 sequence (P27361 whole entry): as above

As for `C=CC(=O)Nc1c(Nc2nc(Nc3cc(OC)ncc3C)ncc2C(F)(F)F)ccc(C)c1F` [Compound I-367, N-(2-fluoro-6-((2-((2-methoxy-5-methylpyridin-4-yl)amino)-5-(trifluoromethyl)pyrimidin-4-yl)amino)-3-methylphenyl)acrylamide], the EC50 in assay [1] lay in the range of 101 to 500 nM. Moreover, in assay [2], the “ERK1 Mass Mod (%)” value is recorded as “E (a mass modification of ≧70%)”. In addition, the IC50 in assay [3] fell in the range of 101 to 500 nM.

On to `C=CC(=O)Nc1ccc(OCC(N)=O)cc1Nc1nc(NC2CCOCC2)ncc1C(F)(F)F` [Compound I-395, N-(4-(2-amino-2-oxoethoxy)-2-((2-((tetrahydro-2H-pyran-4-yl)amino)-5-(trifluoromethyl)pyrimidin-4-yl)amino)phenyl)acrylamide], for which the EC50 in assay [1] was above 1000 nM. In assay [2], the “ERK1 Mass Mod (%)” value is recorded as “E (a mass modification of ≧70%)”. In assay [3], the IC50 is above 1000 nM.

`C=CC(=O)Nc1cc(OCC(N)=O)ccc1Nc1nc(NC2CCOCC2)ncc1C(F)(F)F` [Compound I-387, N-(5-(2-amino-2-oxoethoxy)-2-((2-((tetrahydro-2H-pyran-4-yl)amino)-5-(trifluoromethyl)pyrimidin-4-yl)amino)phenyl)acrylamide]: the EC50 in assay [1] fell in the range of 101 to 500 nM. Also, the “ERK1 Mass Mod (%)” value in assay [2] is listed as “E (a mass modification of ≧70%)”. For the same molecule, the IC50 in assay [3] lay in the range of 101 to 500 nM.

For the molecule `C=CC(=O)Nc1cc(C)ccc1Nc1nc(Nc2nc(OC)ncc2OC)ncc1C(F)(F)F` [Compound I-349, N-(2-((2-((2,5-dimethoxypyrimidin-4-yl)amino)-5-(trifluoromethyl)pyrimidin-4-yl)amino)-5-methylphenyl)acrylamide], the EC50 in assay [1] is 101 to 500 nM. Also, the “ERK1 Mass Mod (%)” value in assay [2] is listed as “E (a mass modification of ≧70%)”. Further, in assay [3], the IC50 fell in the range of 101 to 500 nM.

`C=CC(=O)Nc1cc(C)ccc1Nc1nc(Nc2cc(OC)nnc2OC)ncc1C(F)(F)F` [Compound I-372, N-(2-((2-((3,6-dimethoxypyridazin-4-yl)amino)-5-(trifluoromethyl)pyrimidin-4-yl)amino)-5-methylphenyl)acrylamide]: the EC50 in assay [1] lay in the range of 101 to 500 nM. In assay [2], the “ERK1 Mass Mod (%)” value is reported as “F (a mass modification of 31-69%)”. Moreover, in assay [3], the IC50 lay within 501 to 999 nM.
